The text below walks through data of patent publication US10463632B2, “Method for treating a neurovascular complication of diabetes mellitus” (KING SAUD UNIVERSITY, priority 2016, dated 2019).

Common to all, as to type: in vivo, Sprague Dawley rats
Assay [1] deals with reactive oxygen species (ROS). Briefly: Reactive Oxygen Species (ROS) measurement in retinal tissue homogenates (DCF fluorescence). Conditions: retinas of diabetic animals treated with thymoquinone; FIG. 2. As for the experimental part:
(§1) Healthy Sprague Dawley rats (150-200 g) were used for the trials. Animals were issued from Central Animal House Facility of the College of Pharmacy, King Saud University and were kept in standard plastic animal cages in groups of 6 animals each with 12 hours light and dark cycle at 25±2° C. The rats were fed on standard rat chow and provided water ad libitum. The animals were acclimatized to laboratory conditions for a week prior to experiments. Diabetes was induced in overnight fasted rats by administration of Streptozotocin (STZ) at dose of 55 mg/kg intraperitoneally in citric acid buffer (pH 4.5). After one hour of STZ administration, the animals were allowed to feed ad libitum. The animals were kept under observation and fasting blood glucose levels were estimated before 72 hours of STZ treatment. […] Relevant biochemical parameters including serum creatinine, uric acid, alanine aminotransferase (ALT), aspartate aminotransferase (AST), alkaline phosphatase and bilirubin were assessed using colorimetric methods.
Reactive Oxygen Species (ROS) generation was measured in retinal tissue homogenates using a 2′,7′-dichlorofluorescein-diacetate (DCHFDA) as is known in the art. […] Fluorescence was measured using a SpectraMax Gemini-XPS every 15 min for 1 hour with excitation and emission wavelengths of 488 nm and 525 nm, respectively.

Assay [2] has as its system Streptozotocin (STZ)-induced diabetic rats. Briefly: Kidney and liver function tests (colorimetric serum biochemistry) in STZ-induced diabetic rats. On the procedure: (§2) Healthy Sprague Dawley rats (150-200 g) were used for the trials. Animals were issued from Central Animal House Facility of the College of Pharmacy, King Saud University and were kept in standard plastic animal cages in groups of 6 animals each with 12 hours light and dark cycle at 25±2° C. The rats were fed on standard rat chow and provided water ad libitum. The animals were acclimatized to laboratory conditions for a week prior to experiments. Diabetes was induced in overnight fasted rats by administration of Streptozotocin (STZ) at dose of 55 mg/kg intraperitoneally in citric acid buffer (pH 4.5). After one hour of STZ administration, the animals were allowed to feed ad libitum. The animals were kept under observation and fasting blood glucose levels were estimated […] 72 hours of STZ treatment. Animals showing blood glucose levels >350 mg/dl were considered as diabetic and were used for further trials. Diabetic rats were divided into two groups (10 rats per group) at random. Group I served as diabetic control. Group II were administered thymoquinone (2 mg/kg intraperitoneally) in alternate days for three weeks. Healthy rats were also kept as normal controls. Relevant biochemical parameters including serum creatinine, uric acid, alanine aminotransferase (ALT), aspartate aminotransferase (AST), alkaline phosphatase and bilirubin were assessed using colorimetric methods.

In assay [3] the test system is brain derived neurotrophic factor (BDNF). Kind of assay: Western blot of retinal BDNF expression in diabetic rats. Conditions: diabetic rat retinas, thymoquinone 2 mg/kg i.p. alternate days, three weeks; FIG. 1A. As for the experimental part: as §1, with “libitum.” for “libitum. The animals were kept under observation and fasting blood glucose levels were estimated before 72 hours of STZ treatment.”, “methods. […] After incubations with secondary antibodies, membranes were washed four times with TBS-T (5 min each) and the immunoreactivity of bands was visualized on a high-performance chemiluminescence machine by using enhanced chemiluminescence plus Luminol and quantified by densitometric analysis using image processing and analysis in GeneTools. As a control, the blots were stripped and detected with a mouse monoclonal anti-β-actin antibody (1:2000). […]” for “methods.”
In general terms: A western blot detects proteins with antibodies after separation by electrophoresis.

Another assay deals with cleaved caspase-3. Briefly: Western blot of retinal cleaved caspase-3 in diabetic rats. Conditions: diabetic rat retinas, thymoquinone 2 mg/kg i.p. alternate days, three weeks; FIG. 1D. On the procedure: as §1, with “libitum.” for “libitum. The animals were kept under observation and fasting blood glucose levels were estimated before 72 hours of STZ treatment.”, “methods. […] After incubations with secondary antibodies, membranes were washed four times with TBS-T (5 min each) and the immunoreactivity of bands was visualized on a high-performance chemiluminescence machine by using enhanced chemiluminescence plus Luminol and quantified by densitometric analysis using image processing and analysis in GeneTools. As a control, the blots were stripped and detected with a mouse monoclonal anti-β-actin antibody (1:2000). […]” for “methods.”

In assay [4] the test system is tyrosine hydroxylase (TH). Briefly: Western blot of retinal tyrosine hydroxylase expression in diabetic rats. Conditions: diabetic rat retinas, thymoquinone 2 mg/kg i.p. alternate days, three weeks; FIG. 1B. As for the experimental part:
as §1, with “libitum.” for “libitum. The animals were kept under observation and fasting blood glucose levels were estimated before 72 hours of STZ treatment.”, “methods. […] After incubations with secondary antibodies, membranes were washed four times with TBS-T (5 min each) and the immunoreactivity of bands was visualized on a high-performance chemiluminescence machine by using enhanced chemiluminescence plus Luminol and quantified by densitometric analysis using image processing and analysis in GeneTools. As a control, the blots were stripped and detected with a mouse monoclonal anti-β-actin antibody (1:2000). […]” for “methods.”

The test system of assay [5] is Blood-Retinal Barrier in STZ-Induced Diabetic Rats. Kind of assay: Measurement of Blood Retinal Barrier (BRB) breakdown with FITC-conjugated dextran. The conditions noted are these: thymoquinone 2 mg/kg on alternate days, compared with diabetic retinas, FIG. 3. As for the experimental part: as §1, with “libitum.” for “libitum. The animals were kept under observation and fasting blood glucose levels were estimated before 72 hours of STZ treatment.”, “methods. Rat retinas were analyzed for Blood Retinal Barrier (BRB) breakdown after 3 weeks of thymoquinone dosing using fluorescein isothiocyanate (FITC)-conjugated dextran as previously described in the prior art. […] Fluorescence was measured using a Spectra Max Gemini-XPS with excitation and emission wavelengths of 485 nm and 538 nm, respectively, with PBS as a blank. Blood retinal barrier breakdown was calculated using the following equation (1) with the results being expressed in μL g^−1 hr^−1. […]” for “methods.”

The subject of assay [6] is Streptozotocin (STZ)-induced diabetic rats. Kind of assay: Blood glucose concentration in STZ-induced diabetic rats with thymoquinone administration. Conditions: TQ 2 mg/Kg intraperitoneally on alternate days. On the procedure:
as §2

Assay [7] has as its system nerve growth factor receptor (NGFR). Kind of assay: Western blot of retinal NGFR expression in diabetic rats. The conditions noted are these: diabetic rat retinas, thymoquinone 2 mg/kg i.p. alternate days, three weeks; FIG. 1C. On the procedure: as §1, with “libitum.” for “libitum. The animals were kept under observation and fasting blood glucose levels were estimated before 72 hours of STZ treatment.”, “methods. […] After incubations with secondary antibodies, membranes were washed four times with TBS-T (5 min each) and the immunoreactivity of bands was visualized on a high-performance chemiluminescence machine by using enhanced chemiluminescence plus Luminol and quantified by densitometric analysis using image processing and analysis in GeneTools. As a control, the blots were stripped and detected with a mouse monoclonal anti-β-actin antibody (1:2000). […]” for “methods.”

The mark [8] stands for this setting: diabetic rats treated with TQ 2 mg/kg i.p. on alternate days for three weeks.

Turning to `CC1=CC(=O)C(C(C)C)=CC1=O` [thymoquinone, 2-Isopropyl-5-methylbenzo-1,4-quinone], the “ROS generation (DCF retinal levels)” value in assay [1] was “significantly attenuated”. In addition, the “kidney and liver function tests versus untreated diabetic animals” value in assay [2] (diabetic rats that received thymoquinone) is “more normal”. Further, in assay [2] (setting [8]), the “ALKALINE Phos” value is recorded as 179.08 ± 4.51 U/l, the ALT came out at 134.43 ± 5.21 U/l, the AST was 138.48 ± 2.94 U/l and the Bilirubin was found to be 3.23 ± 0.04 mg/dL. In assay [2] (setting [8]), this compound came in with a Creatinine of 0.62 ± 0.05 mg/dL and a Uric acid of 4.99 ± 0.07 mg/dL. Besides, the “retinal BDNF expression (diabetes-induced down-regulation of about 65%)” value in assay [3] was “normalized”. Moreover, in the assay on cleaved caspase-3, the “retinal cleaved caspase-3 (diabetes-induced up-regulation of about 52%)” value is given as “normalized”. The “retinal TH levels (diabetes-induced decrease of about 32%)” value in assay [4] is “normalized”. Moreover, the “effect of diabetes on BRB breakdown (retinal vascular permeability)” value in assay [5] is “significantly attenuated”. The “Glucose Concentration” value in assay [6] (after 7 days of TQ treatment) turned out to be 580.58 ± 2.40 mg/dL. For the same compound, the “Glucose Concentration” value in assay [6] (after 14 days of TQ treatment) came out at 559.55 ± 1.29 mg/dL. The “Glucose Concentration” value in assay [6] (after 21 days of TQ treatment) worked out at 495.10 ± 5.71 mg/dL. Moreover, in assay [7], the “retinal NGFR expression (diabetes-induced increase of about 75%)” value was “normalized”.
